Assay type in all cases: cell-based
The test system of one test is P. aeruginosa PAO1. Put plainly: MIC determination, broth microdilution (CLSI). The settings on record: for MIC: Pseudomonas aeruginosa, PAO1, strain 6. On the technique in general: In broth dilution the organism is exposed to a series of concentrations in liquid medium.
A further test has as its system strain 19. Put plainly: MIC determination, broth microdilution (CLSI).
The next test deals with E. cloacae 34654. The test can be described thus: MIC determination, broth microdilution (CLSI). The conditions noted are these: for MIC: Enterobacter cloacae, 34654, strain 3.
The next test has as its system C. freundii K21/3034. The test can be described thus: MIC determination, broth microdilution (CLSI). The settings on record: for MIC: Citrobacter freundii, K21/3034, strain 4.
Another test deals with A. baumannii ATCC15308. Put plainly: MIC determination, broth microdilution (CLSI). The conditions noted are these: for MIC: Acinetobacter baumannii, ATCC15308, strain 9.
The test system of test [1] is P. aeruginosa 2297 (AmpC wt). The test can be described thus: MIC determination, broth microdilution (CLSI). The conditions noted are these: for MIC: Pseudomonas aeruginosa, strain 7.
For the next test, the system named is K. pneumoniae 60. The test can be described thus: MIC determination, broth microdilution (CLSI). The settings on record: for MIC: Klebsiella pneumoniae, 60, strain 2.
The subject of a further test is strain 21. The test can be described thus: MIC determination, broth microdilution (CLSI).
Another test has as its system E. coli J62. The test can be described thus: MIC determination, broth microdilution (CLSI). The conditions noted are these: for MIC: Escherichia coli, J62, strain 17.
A further test concerns S. pneumoniae 113. Put plainly: MIC determination, broth microdilution (CLSI).
In a further test the test system is M. morganii 126/3048. The test can be described thus: MIC determination, broth microdilution (CLSI). The conditions noted are these: for MIC: Morganella morganii, 126/3048, strain 5.
The next test relates to strain 20. The test can be described thus: MIC determination, broth microdilution (CLSI).
Another test deals with E. coli ATCC25922. Put plainly: MIC determination, broth microdilution (CLSI). The settings on record: for MIC: Escherichia coli, ATCC25922, strain 1.
The subject of a further test is C. perfringens DSM756. Put plainly: microbe, parasite or virus in culture. The conditions noted are these: Clostridium perfringens, DSM756, read-out: MIC strain 16 (C. perfringens DSM756), strain 16; broth microdilution.
The test system of the next test is S. aureus 133. Put plainly: MIC determination, broth microdilution (CLSI).
For the next test, the system named is B. fragilis 6688. The test can be described thus: MIC determination, broth microdilution (CLSI). The settings on record: Bacteroides fragilis, 6688, strain 15; broth microdilution; read-out: MIC strain 15 (B. fragilis 6688).
The subject of a further test is E. coli J62-TEM-3. The test can be described thus: MIC determination, broth microdilution (CLSI). The settings on record: broth microdilution.
The test system of the next test is S. maltophilia ICB7569. Put plainly: MIC determination, broth microdilution (CLSI).
In the next test the test system is Bacteria. Put plainly: MIC determination in combination with β-lactamase inhibitors (constant 4 μg/mL).
The subject of the next test is H. influenzae ATCC 49247. Put plainly: MIC determination, broth microdilution (CLSI). The conditions noted are these: Haemophilus influenzae, ATCC49247, strain 12; broth microdilution; read-out: MIC strain 12 (H. influenzae ATCC 49247).
The subject of test [2] is P. aeruginosa 2297-con (AmpC derepressed). The test can be described thus: MIC determination, broth microdilution (CLSI).
Where [3] appears, read: Staphylococcus aureus, 133, strain 11, read-out: strain 11 MIC.
Setting [4] is: Streptococcus pneumoniae, 113, strain 13, broth microdilution, read-out: MIC strain 13 (S. pneumoniae 113).

In brackets after ≈: the same amount, converted by molar mass. Where two headings read alike, the source gives them in different places.

3 compounds from US9556165B2 (priority 2012, dated 2017) can be followed below.

For `C[C@@H]1[C@H](NC(=O)/C(=N\OCCOc2ccc(C(=N)N)cc2)c2csc(N)n2)C(=O)N1OS(=O)(=O)O` [Example 10, (2Z)-2-(2-Amino-1,3-thiazol-4-yl)-2-{[2-(4-carbamimidoylphenoxy)ethoxy]imino}-N-[(2R,3S)-2-methyl-4-oxo-1-(sulfooxy)azetidin-3-yl]ethanamide], the MIC turned out to be 8 µg/mL (≈ 15.2 µM) against P. aeruginosa PAO1; 0.5 µg/mL (≈ 0.948 µM) in the test with strain 19; 1 µg/mL (≈ 1.9 µM) in the test on E. cloacae 34654; 1 µg/mL (≈ 1.9 µM) with C. freundii K21/3034; 8 µg/mL (≈ 15.2 µM) with A. baumannii ATCC15308; 8 µg/mL (≈ 15.2 µM) in test [1]. Also, the MIC amounted to 2 µg/mL (≈ 3.79 µM) with K. pneumoniae 60; 0.5 µg/mL (≈ 0.948 µM) with strain 21; 0.5 µg/mL (≈ 0.948 µM) in the test with E. coli J62 (read-out: strain 17 MIC); 2 µg/mL (≈ 3.79 µM) in the test with S. pneumoniae 113 (Streptococcus pneumoniae, 113, strain 14, read-out: strain 14 MIC); 4 µg/mL (≈ 7.58 µM) with M. morganii 126/3048; 0.5 µg/mL (≈ 0.948 µM) against strain 20. The MIC with E. coli ATCC25922 amounted to 0.5 µg/mL (≈ 0.948 µM).

`CC1(C)[C@H](NC(=O)/C(=N\OCCOc2ccc(C(=N)NCCN)nc2)c2csc(N)n2)C(=O)N1OS(=O)(=O)O` [Example 82, (2Z)-2-{[2-({6-[N-(2-Aminoethyl)carbamimidoyl]pyridin-3-yl}oxy)ethoxy]imino}-2-(2-amino-1,3-thiazol-4-yl)-N-[(3S)-2,2-dimethyl-4-oxo-1-(sulfooxy)azetidin-3-yl]ethanamide]: the MIC in the test on C. perfringens DSM756 is 4 µg/mL (≈ 6.83 µM); in the test with S. aureus 133 (setting [3]) it was not above 0.063 µg/mL; in the test with S. aureus 133 (Staphylococcus aureus, 133, strain 14, broth microdilution, read-out: MIC strain 14 (S. aureus 133)), 8 µg/mL (≈ 13.7 µM); against P. aeruginosa PAO1, 8 µg/mL (≈ 13.7 µM); with B. fragilis 6688, 4 µg/mL (≈ 6.83 µM); in the test on E. cloacae 34654 it was 0.5 µg/mL (≈ 0.854 µM). Moreover, the MIC was 0.25 µg/mL (≈ 0.427 µM) in the test on C. freundii K21/3034; 8 µg/mL (≈ 13.7 µM) with E. coli J62-TEM-3 (Escherichia coli, J62TEM3, read-out: MIC strain 18 (E. coli J62-TEM-3), strain 18); 4 µg/mL (≈ 6.83 µM) with A. baumannii ATCC15308; 32 µg/mL (≈ 54.6 µM) against S. maltophilia ICB7569 (Stenotrophomonas maltophilia, ICB7569, strain 10); 16 µg/mL (≈ 27.3 µM) in test [1]; 0.125 µg/mL (≈ 0.213 µM) in the test on K. pneumoniae 60. In addition, the MIC with E. coli J62 (broth microdilution, read-out: MIC strain 17 (E. coli J62)) is 0.25 µg/mL (≈ 0.427 µM); with H. influenzae ATCC 49247, not above 0.063 µg/mL; in the test with S. pneumoniae 113 (setting [4]), not above 0.063 µg/mL; in [2] (Pseudomonas aeruginosa, read-out: strain 8 MIC, strain 8) it was 8 µg/mL (≈ 13.7 µM); in the test on M. morganii 126/3048, 0.5 µg/mL (≈ 0.854 µM); against E. coli ATCC25922, 0.25 µg/mL (≈ 0.427 µM). For the same compound, in the test on Bacteria, the “MIC strain 19 (E. coli J62-TEM-3 + 4 μg/mL clavulanic acid)” value came out at 0.25 µg/mL. Also, the “MIC strain 20 (E. coli J62-TEM-3 + 4 μg/mL sulbactam)” value in the test on Bacteria was found to be 0.25 µg/mL. For the same compound, the “MIC strain 21 (E. coli J62-TEM-3 + 4 μg/mL tazobactam)” value in the test with Bacteria stood at 0.5 µg/mL.

`CC1(C)[C@H](NC(=O)/C(=N\OC(CO)COc2ccc(C(=N)N)cc2)c2csc(N)n2)C(=O)N1OS(=O)(=O)O` (mixture of isomers) [Example 45B, (2Z)-2-(2-Amino-1,3-thiazol-4-yl)-2-({[(2R and 2S)-1-(4-carbamimidoylphenoxy)-3-hydroxypropan-2-yl]oxy}imino)-N-[(3S)-2,2-dimethyl-4-oxo-1-(sulfooxy)azetidin-3-yl]ethanamide]: the MIC with C. perfringens DSM756 is 2 µg/mL; in the test on S. aureus 133 (setting [3]), not above 0.063 µg/mL; in the test with B. fragilis 6688 it was 4 µg/mL; with H. influenzae ATCC 49247, 0.5 µg/mL; in the test on S. pneumoniae 113 (setting [4]), 0.125 µg/mL. Besides, in the test on S. aureus 133 (strain 14, broth microdilution), the “MIC strain 14 (S. aureus 133)” value is 16 µg/mL. Further, in the test on P. aeruginosa PAO1 (strain 6), the “strain 6 MIC” value came to 16 µg/mL. For the same compound, the “strain 3 MIC” value in the test on E. cloacae 34654 (strain 3) turned out to be 4 µg/mL. Moreover, the “strain 4 MIC” value in the test with C. freundii K21/3034 (strain 4) is 1 µg/mL. Moreover, the “MIC strain 18 (E. coli J62-TEM-3)” value in the test on E. coli J62-TEM-3 (strain 18) came out at 16 µg/mL. Further, the “strain 9 MIC” value in the test with A. baumannii ATCC15308 (strain 9) came out at 4 µg/mL. Further, in the test with S. maltophilia ICB7569 (strain 10), the “strain 10 MIC” value worked out at 32 µg/mL. For the same compound, the “strain 7 MIC” value in test [1] was 32 µg/mL. Also, the “strain 2 MIC” value in the test with K. pneumoniae 60 (strain 2) stood at 2 µg/mL. For the same compound, in the test with E. coli J62 (strain 17, broth microdilution), the “MIC strain 17 (E. coli J62)” value turned out to be 4 µg/mL. In the test with Bacteria, the “MIC strain 19 (E. coli J62-TEM-3 + 4 μg/mL clavulanic acid)” value is 2 µg/mL. Also, the “MIC strain 20 (E. coli J62-TEM-3 + 4 μg/mL sulbactam)” value in the test with Bacteria is 4 µg/mL. For the same compound, in the test on Bacteria, the “MIC strain 21 (E. coli J62-TEM-3 + 4 μg/mL tazobactam)” value came out at 4 µg/mL. In addition, the “strain 8 MIC” value in [2] (strain 8) is 32 µg/mL. In addition, in the test with M. morganii 126/3048 (strain 5), the “strain 5 MIC” value was determined as 4 µg/mL. In addition, the “strain 1 MIC” value in the test on E. coli ATCC25922 (strain 1) worked out at 2 µg/mL.
